In US20240400531A1, “HERBICIDAL MALONAMIDES CONTAINING A CONDENSED RING SYSTEM” (BASF SE, priority 2021, published 2024):

Legend:
AMARE = experiment: greenhouse post-emergence herbicidal test; format: in vivo, Amaranthus retroflexus; conditions: post-emergence method, application rate 0.250 kg/ha, scale from 0 to 100
Source text: (§1) The culture containers used were plastic flowerpots containing loamy sand with approximately 3.0% of humus as the substrate. The seeds of the test plants were sown separately for each species.
(§2) For the post-emergence treatment, the test plants were first grown to a height of 3 to 15 cm, depending on the plant habit, and only then treated with the active ingredients which had been suspended or emulsified in water. For this purpose, the test plants were either sown directly and grown in the same containers, or they were first grown separately as seedlings and transplanted into the test containers a few days prior to treatment.
(§3) Depending on the species, the test plants were kept at 10-25° C. or 20-35° C., respectively.
(§4) The test period extended over 2 to 4 weeks. During this time, the test plants were tended, and their response to the individual treatments was evaluated.
(§5) Evaluation was carried out using a scale from 0 to 100. 100 means no emergence of the test plants, or complete destruction of at least the aerial moieties, and 0 means no damage, or normal course of growth. A good herbicidal activity is given at values of 65 to <90 and a very good herbicidal activity is given at values of 90 to 100.

APESV = experiment: greenhouse pre-emergence herbicidal test; format: in vivo, Apera spica-venti; conditions: pre-emergence method, application rate 0.250 kg/ha, scale from 0 to 100
Source text: as §1
For the pre-emergence treatment, the active ingredients, which had been suspended or emulsified in water, were applied directly after sowing by means of finely distributing nozzles. The containers were irrigated gently to promote germination and growth and subsequently covered with transparent plastic hoods until the test plants had rooted. This cover caused uniform germination of the test plants, unless this had been impaired by the active ingredients.
as §3, §4, §5

ECHCG = experiment: greenhouse post-emergence herbicidal test; format: in vivo, Echinocloa crus-galli; conditions: post-emergence method, application rate 0.250 kg/ha, scale from 0 to 100
Source text: as §1, §2, §3, §4, §5

Structure (SMILES) | herbicidal activity against AMARE (AMARE) | herbicidal activity against APESV (APESV) | herbicidal activity against ECHCG (ECHCG)
COC(C(=O)Nc1cccc2ocnc12)C(=O)N[C@H]1C=C[C@@H](C(=O)OC(C)C)C1 (stereo partly drawn) [I.11, isopropyl (1S,4R)-4-[[3-(1,3-benzoxazol-4-ylamino)-2-methoxy-3-oxo-propanoyl]amino]cyclopent-2-ene-1-carboxylate] | very good (a very good herbicidal activity is given at values of 90 to 100) | – | –
COC(C(=O)Nc1cccc2occc12)C(=O)N[C@H]1C=C[C@@H](C(=O)OC(C)C)C1 (stereo partly drawn) [I.6, isopropyl (1S,4R)-4-[[3-(benzofuran-4-ylamino)-2-methoxy-3-oxo-propanoyl]amino]cyclopent-2-ene-1-carboxylate] | – | very good (a very good herbicidal activity is given at values of 90 to 100) | very good (a very good herbicidal activity is given at values of 90 to 100)
